The values that follow come from ChEMBL document CHEMBL1909046, “DrugMatrix in vitro pharmacology data”.

Mu-type opioid receptor, sequence (P35372 whole entry): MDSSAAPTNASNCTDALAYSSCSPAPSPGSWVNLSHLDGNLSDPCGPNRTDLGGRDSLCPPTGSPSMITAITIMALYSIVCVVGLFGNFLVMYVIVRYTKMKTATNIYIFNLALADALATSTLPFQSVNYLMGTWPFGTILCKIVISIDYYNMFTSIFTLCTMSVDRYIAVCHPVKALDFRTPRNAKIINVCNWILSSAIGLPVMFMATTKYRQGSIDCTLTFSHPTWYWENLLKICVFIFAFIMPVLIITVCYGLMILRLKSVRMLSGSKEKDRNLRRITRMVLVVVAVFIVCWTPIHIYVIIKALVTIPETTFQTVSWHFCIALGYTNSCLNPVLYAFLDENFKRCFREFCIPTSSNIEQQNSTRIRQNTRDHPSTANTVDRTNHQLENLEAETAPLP

Tested on in one experiment: not listed separately
As to the kind of experiment: DRUGMATRIX: Glutamate, Kainate radioligand binding (ligand: [3H] Kainic acid). Type of experiment: cell membranes, Rattus norvegicus, Wistar, Brain, Membrane. Conditions: Not Active = under 50% inhibition at 10 µM.
As to `COc1cc(C(=O)NC2CCCNC2)cc(OC)c1OC` (stereo not drawn) [TROXIPIDE], the IC50 entry is “Not Active” and the Ki result is listed as “Not Active”.
On to `CC1(C)[C@H]2CC[C@]1(C)C(=O)C2` [(-)-CAMPHOR], for which the IC50 entry is on record as “Not Active” and the Ki result is on record as “Not Active”.

Tested on in the next experiment: not listed separately
As to the kind of experiment: DRUGMATRIX: ATPase, Na+/K+ enzyme inhibition (substrate: ATP). Type of experiment: tissue-based, Sus scrofa, Heart. The conditions noted are these: Not Active = under 50% inhibition at 10 µM.
For the molecule `COc1cc(C(=O)NC2CCCNC2)cc(OC)c1OC` (stereo not drawn) [TROXIPIDE], the IC50 result was “Not Active” and the Ki entry is “Not Active”.
Turning to `CC1(C)[C@H]2CC[C@]1(C)C(=O)C2` [(-)-CAMPHOR], the IC50 entry is recorded as “Not Active” and the Ki entry was “Not Active”.

Tested on in another experiment: not listed separately
The experiment in a line: DRUGMATRIX: Nicotinic Acetylcholine radioligand binding (ligand: [125I] Epibatidine). The conditions noted are these: imr-32; Not Active = under 50% inhibition at 10 µM. The experiment is classed as cell membranes, Membrane.
Regarding `COc1cc(C(=O)NC2CCCNC2)cc(OC)c1OC` (stereo not drawn) [TROXIPIDE], the IC50 result is given as “Not Active” and the Ki result was “Not Active”.
Take `CC1(C)[C@H]2CC[C@]1(C)C(=O)C2` [(-)-CAMPHOR]: the IC50 result is “Not Active” and the Ki result is on record as “Not Active”.

A further experiment deals with Kappa-type opioid receptor (Homo sapiens, UniProt P41145). As to the kind of experiment: DRUGMATRIX: Opiate kappa (OP2, KOP) radioligand binding (ligand: [3H] Diprenorphine). Conditions: hek293; Not Active = under 50% inhibition at 10 µM. The experiment is classed as cell membranes, HEK293, Membrane.
Kappa-type opioid receptor, sequence (P41145 whole entry): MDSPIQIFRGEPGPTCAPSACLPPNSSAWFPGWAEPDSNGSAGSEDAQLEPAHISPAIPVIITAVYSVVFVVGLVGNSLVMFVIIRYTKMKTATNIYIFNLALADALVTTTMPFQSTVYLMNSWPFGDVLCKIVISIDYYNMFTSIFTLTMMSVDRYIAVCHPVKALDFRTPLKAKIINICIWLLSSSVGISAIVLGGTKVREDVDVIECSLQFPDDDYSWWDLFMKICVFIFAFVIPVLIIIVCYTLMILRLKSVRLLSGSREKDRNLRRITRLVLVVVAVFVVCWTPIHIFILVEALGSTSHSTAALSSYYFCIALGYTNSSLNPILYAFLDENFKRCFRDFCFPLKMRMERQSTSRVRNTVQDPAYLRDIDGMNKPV
Turning to `COc1cc(C(=O)NC2CCCNC2)cc(OC)c1OC` (stereo not drawn) [TROXIPIDE], the IC50 entry is “Not Active”.
For `CC1(C)[C@H]2CC[C@]1(C)C(=O)C2` [(-)-CAMPHOR], the IC50 entry is “Not Active”.

In another experiment the target is Melanocortin receptor 4 (Homo sapiens, UniProt P32245). The experiment is classed as cell membranes, Membrane. Conditions: hek293. Note: in other assays of this panel Not Active means under 50% inhibition at 10 µM.
Melanocortin receptor 4, sequence (P32245 whole entry): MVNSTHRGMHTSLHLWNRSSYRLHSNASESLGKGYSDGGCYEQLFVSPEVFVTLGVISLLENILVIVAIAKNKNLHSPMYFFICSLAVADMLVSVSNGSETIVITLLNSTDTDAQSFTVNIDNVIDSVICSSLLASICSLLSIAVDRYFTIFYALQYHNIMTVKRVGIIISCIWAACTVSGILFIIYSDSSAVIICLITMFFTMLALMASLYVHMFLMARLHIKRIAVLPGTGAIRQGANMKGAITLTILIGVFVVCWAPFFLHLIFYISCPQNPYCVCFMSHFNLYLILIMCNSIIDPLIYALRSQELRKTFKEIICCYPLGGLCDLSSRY
In the case of `COc1cc(C(=O)NC2CCCNC2)cc(OC)c1OC` (stereo not drawn) [TROXIPIDE], the IC50 result is listed as “Not Active”.
In the case of `CC1(C)[C@H]2CC[C@]1(C)C(=O)C2` [(-)-CAMPHOR], the IC50 result is on record as “Not Active”.

In a further experiment the target is T1, Alpha-1B adrenergic receptor (Rattus norvegicus, UniProt P15823).
T1 sequence (P15823 whole entry): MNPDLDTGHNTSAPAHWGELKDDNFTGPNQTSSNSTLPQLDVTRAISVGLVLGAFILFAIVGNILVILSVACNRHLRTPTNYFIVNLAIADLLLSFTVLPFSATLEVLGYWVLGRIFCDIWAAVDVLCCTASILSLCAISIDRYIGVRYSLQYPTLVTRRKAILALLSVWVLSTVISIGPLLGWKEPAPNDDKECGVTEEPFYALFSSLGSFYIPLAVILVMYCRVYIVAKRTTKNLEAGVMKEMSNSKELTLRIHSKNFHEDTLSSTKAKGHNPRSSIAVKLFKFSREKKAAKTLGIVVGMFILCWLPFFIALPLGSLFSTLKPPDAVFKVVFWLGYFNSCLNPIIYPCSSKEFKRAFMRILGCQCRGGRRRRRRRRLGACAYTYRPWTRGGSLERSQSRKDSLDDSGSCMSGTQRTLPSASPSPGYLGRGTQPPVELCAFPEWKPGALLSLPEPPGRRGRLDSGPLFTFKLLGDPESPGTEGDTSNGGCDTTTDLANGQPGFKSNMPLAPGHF
The experiment in a line: DRUGMATRIX: Alpha-1B adrenergic receptor radioligand binding (ligand: prazosin). The experiment is classed as cell membranes, Wistar, Liver, Membrane. The conditions noted are these: Not Active = under 50% inhibition at 10 µM.
As for `COc1cc(C(=O)NC2CCCNC2)cc(OC)c1OC` (stereo not drawn) [TROXIPIDE], the IC50 result is “Not Active”.
As for `CC1(C)[C@H]2CC[C@]1(C)C(=O)C2` [(-)-CAMPHOR], the IC50 result is “Not Active”.

Tested on in a further experiment: not listed separately
As to the kind of experiment: DRUGMATRIX: GABAA, Muscimol, Central radioligand binding (ligand: [3H] Muscimol). The experiment is classed as cell membranes, Rattus norvegicus, Wistar, Brain, Membrane. Conditions: Not Active = under 50% inhibition at 10 µM.
`COc1cc(C(=O)NC2CCCNC2)cc(OC)c1OC` (stereo not drawn) [TROXIPIDE]: the IC50 entry was “Not Active” and the Ki entry was “Not Active”.
With `CC1(C)[C@H]2CC[C@]1(C)C(=O)C2` [(-)-CAMPHOR], the IC50 entry was “Not Active” and the Ki entry is reported as “Not Active”.

A further experiment concerns the target Mu-type opioid receptor (Homo sapiens, UniProt P35372). The experiment in a line: DRUGMATRIX: Opiate mu (OP3, MOP) radioligand binding (ligand: [3H] Diprenorphine). Conditions: cho-k1; Not Active = under 50% inhibition at 10 µM. Type of experiment: cell membranes, CHO-K1, Membrane.
For `COc1cc(C(=O)NC2CCCNC2)cc(OC)c1OC` (stereo not drawn) [TROXIPIDE], the IC50 entry is listed as “Not Active”.
Consider `CC1(C)[C@H]2CC[C@]1(C)C(=O)C2` [(-)-CAMPHOR], for which the IC50 result was “Not Active”.

A further experiment deals with T2, Neuropeptide Y receptor type 2 (Homo sapiens, UniProt P49146).
T2 sequence (P49146 whole entry): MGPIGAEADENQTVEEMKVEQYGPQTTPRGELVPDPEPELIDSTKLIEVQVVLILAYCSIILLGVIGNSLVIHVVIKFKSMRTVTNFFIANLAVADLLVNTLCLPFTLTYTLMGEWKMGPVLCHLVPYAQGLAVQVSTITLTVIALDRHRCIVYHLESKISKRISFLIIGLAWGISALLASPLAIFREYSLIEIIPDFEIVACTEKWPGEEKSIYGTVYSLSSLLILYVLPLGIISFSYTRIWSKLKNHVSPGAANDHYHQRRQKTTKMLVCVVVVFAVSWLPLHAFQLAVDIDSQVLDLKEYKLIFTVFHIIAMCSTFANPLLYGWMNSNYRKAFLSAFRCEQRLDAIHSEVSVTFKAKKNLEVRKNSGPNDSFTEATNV
Type of experiment: cell membranes, Membrane. The conditions noted are these: kan-ts.
Take `COc1cc(C(=O)NC2CCCNC2)cc(OC)c1OC` (stereo not drawn) [TROXIPIDE]: the IC50 entry is listed as “Not Active”.
Take `CC1(C)[C@H]2CC[C@]1(C)C(=O)C2` [(-)-CAMPHOR]: the IC50 result is “Not Active”.

Tested on in another experiment: not listed separately
The experiment in a line: DRUGMATRIX: Serotonin (5-Hydroxytryptamine) 5-HT3 radioligand binding (ligand: [3H] GR-65630). Conditions: hek293; Not Active = under 50% inhibition at 10 µM. The experiment is classed as cell membranes, Membrane.
Turning to `COc1cc(C(=O)NC2CCCNC2)cc(OC)c1OC` (stereo not drawn) [TROXIPIDE], the IC50 entry is reported as “Not Active” and the Ki entry was “Not Active”.
As to `CC1(C)[C@H]2CC[C@]1(C)C(=O)C2` [(-)-CAMPHOR], the IC50 result is “Not Active” and the Ki entry is “Not Active”.

For a further experiment, the target named is 5-hydroxytryptamine receptor 6 (Homo sapiens, UniProt P50406). The experiment is classed as cell membranes, HeLa, Membrane. Conditions: hela. Note: in other assays of this panel Not Active means under 50% inhibition at 10 µM.
5-hydroxytryptamine receptor 6, sequence (P50406 whole entry): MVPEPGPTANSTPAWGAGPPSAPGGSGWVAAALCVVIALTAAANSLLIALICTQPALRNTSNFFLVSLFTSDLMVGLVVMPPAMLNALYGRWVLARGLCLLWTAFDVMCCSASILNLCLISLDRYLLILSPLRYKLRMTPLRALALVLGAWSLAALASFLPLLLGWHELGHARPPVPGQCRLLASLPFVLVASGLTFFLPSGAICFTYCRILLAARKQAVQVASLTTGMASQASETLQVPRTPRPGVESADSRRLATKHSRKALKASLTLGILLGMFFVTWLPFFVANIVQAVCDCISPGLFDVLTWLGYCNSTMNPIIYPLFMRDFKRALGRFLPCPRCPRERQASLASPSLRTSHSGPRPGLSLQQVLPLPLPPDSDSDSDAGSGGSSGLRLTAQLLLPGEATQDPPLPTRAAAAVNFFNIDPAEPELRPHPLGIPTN
For `COc1cc(C(=O)NC2CCCNC2)cc(OC)c1OC` (stereo not drawn) [TROXIPIDE], the IC50 result was “Not Active”.
Regarding `CC1(C)[C@H]2CC[C@]1(C)C(=O)C2` [(-)-CAMPHOR], the IC50 result is “Not Active”.

The target in another experiment is Beta-1 adrenergic receptor (Homo sapiens, UniProt P08588). The experiment in a line: DRUGMATRIX: Adrenergic beta1 radioligand binding (ligand: [125I] Cyanopindolol). Conditions: cho-k1; Not Active = under 50% inhibition at 10 µM. Type of experiment: cell membranes, CHO-K1, Membrane.
Beta-1 adrenergic receptor, sequence (P08588 whole entry): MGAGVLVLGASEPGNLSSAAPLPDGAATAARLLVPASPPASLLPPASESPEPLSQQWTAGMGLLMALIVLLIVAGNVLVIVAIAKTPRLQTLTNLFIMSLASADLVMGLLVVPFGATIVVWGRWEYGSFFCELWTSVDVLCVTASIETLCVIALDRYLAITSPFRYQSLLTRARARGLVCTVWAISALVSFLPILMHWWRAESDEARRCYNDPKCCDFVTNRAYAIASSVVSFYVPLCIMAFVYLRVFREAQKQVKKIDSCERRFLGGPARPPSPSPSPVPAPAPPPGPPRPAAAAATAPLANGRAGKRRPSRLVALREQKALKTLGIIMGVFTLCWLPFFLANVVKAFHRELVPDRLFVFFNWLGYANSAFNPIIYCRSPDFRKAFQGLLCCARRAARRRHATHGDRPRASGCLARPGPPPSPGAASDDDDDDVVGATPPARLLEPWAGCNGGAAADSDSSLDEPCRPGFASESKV
Turning to `COc1cc(C(=O)NC2CCCNC2)cc(OC)c1OC` (stereo not drawn) [TROXIPIDE], the IC50 result is “Not Active”.
Take `CC1(C)[C@H]2CC[C@]1(C)C(=O)C2` [(-)-CAMPHOR]: the IC50 result is “Not Active”.

Another experiment concerns the target T3, 5-hydroxytryptamine receptor 2C (Homo sapiens, UniProt P28335).
T3 sequence (P28335 whole entry): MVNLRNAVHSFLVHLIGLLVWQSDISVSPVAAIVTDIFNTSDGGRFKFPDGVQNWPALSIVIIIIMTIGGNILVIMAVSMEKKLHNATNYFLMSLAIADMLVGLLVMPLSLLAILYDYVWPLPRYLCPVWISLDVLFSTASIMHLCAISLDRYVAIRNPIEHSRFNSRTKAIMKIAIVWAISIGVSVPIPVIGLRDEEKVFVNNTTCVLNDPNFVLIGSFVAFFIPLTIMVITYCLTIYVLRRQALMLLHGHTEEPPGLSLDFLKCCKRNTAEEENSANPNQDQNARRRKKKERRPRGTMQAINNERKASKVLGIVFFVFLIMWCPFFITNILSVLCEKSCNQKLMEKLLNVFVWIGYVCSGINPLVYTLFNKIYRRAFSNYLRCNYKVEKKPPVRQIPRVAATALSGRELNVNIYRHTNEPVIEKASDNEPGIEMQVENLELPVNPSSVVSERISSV
As to the kind of experiment: DRUGMATRIX: Serotonin (5-Hydroxytryptamine) 5-HT2C radioligand binding (ligand: [3H] Mesulergine). Conditions: cho-k1; Not Active = under 50% inhibition at 10 µM. The experiment is classed as cell membranes, CHO-K1, Membrane.
Regarding `COc1cc(C(=O)NC2CCCNC2)cc(OC)c1OC` (stereo not drawn) [TROXIPIDE], the IC50 result is “Not Active”.
Turning to `CC1(C)[C@H]2CC[C@]1(C)C(=O)C2` [(-)-CAMPHOR], the IC50 result was “Not Active”.

Tested on in another experiment: not listed separately
As to the kind of experiment: DRUGMATRIX: Calcium Channel Type L, Benzothiazepine radioligand binding (ligand: [3H] Diltiazem). Type of experiment: cell membranes, Rattus norvegicus, Wistar, Brain, Membrane. Conditions: Not Active = under 50% inhibition at 10 µM.
As for `COc1cc(C(=O)NC2CCCNC2)cc(OC)c1OC` (stereo not drawn) [TROXIPIDE], the IC50 entry is on record as “Not Active” and the Ki result was “Not Active”.
As to `CC1(C)[C@H]2CC[C@]1(C)C(=O)C2` [(-)-CAMPHOR], the IC50 result was “Not Active” and the Ki entry is reported as “Not Active”.

In another experiment the target is Sigma non-opioid intracellular receptor 1 (Homo sapiens, UniProt Q99720). The experiment in a line: DRUGMATRIX: Sigma1 radioligand binding (ligand: [3H] Haloperidol). The conditions noted are these: jurkat; Not Active = under 50% inhibition at 10 µM. The experiment is classed as cell membranes, Jurkat, Membrane.
Sigma non-opioid intracellular receptor 1, sequence (Q99720 whole entry): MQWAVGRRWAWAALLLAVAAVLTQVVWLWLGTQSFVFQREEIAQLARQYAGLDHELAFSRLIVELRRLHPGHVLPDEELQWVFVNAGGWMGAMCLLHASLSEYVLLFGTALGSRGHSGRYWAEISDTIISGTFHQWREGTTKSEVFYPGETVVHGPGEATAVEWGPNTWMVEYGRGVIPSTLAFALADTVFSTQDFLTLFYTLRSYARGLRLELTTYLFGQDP
`COc1cc(C(=O)NC2CCCNC2)cc(OC)c1OC` (stereo not drawn) [TROXIPIDE]: the IC50 entry was “Not Active”.
Same read-out and setting: the entry for `CC1(C)[C@H]2CC[C@]1(C)C(=O)C2` [(-)-CAMPHOR] is “Not Active”.

Tested on in a further experiment: not listed separately
As to the kind of experiment: DRUGMATRIX: Calcium Channel Type L, Phenylalkylamine radioligand binding (ligand: [3H] (-)-Desmethoxyverapamil (D-888)). Conditions: Not Active = under 50% inhibition at 10 µM. The experiment is classed as cell membranes, Rattus norvegicus, Wistar, Brain, Membrane.
Turning to `COc1cc(C(=O)NC2CCCNC2)cc(OC)c1OC` (stereo not drawn) [TROXIPIDE], the IC50 result is “Not Active” and the Ki entry was “Not Active”.
As for `CC1(C)[C@H]2CC[C@]1(C)C(=O)C2` [(-)-CAMPHOR], the IC50 result was “Not Active” and the Ki result is reported as “Not Active”.

Another experiment concerns the target T4, Endothelin-1 receptor (Homo sapiens, UniProt P25101). Note: in other assays of this panel Not Active means under 50% inhibition at 10 µM.
T4 sequence (P25101 whole entry): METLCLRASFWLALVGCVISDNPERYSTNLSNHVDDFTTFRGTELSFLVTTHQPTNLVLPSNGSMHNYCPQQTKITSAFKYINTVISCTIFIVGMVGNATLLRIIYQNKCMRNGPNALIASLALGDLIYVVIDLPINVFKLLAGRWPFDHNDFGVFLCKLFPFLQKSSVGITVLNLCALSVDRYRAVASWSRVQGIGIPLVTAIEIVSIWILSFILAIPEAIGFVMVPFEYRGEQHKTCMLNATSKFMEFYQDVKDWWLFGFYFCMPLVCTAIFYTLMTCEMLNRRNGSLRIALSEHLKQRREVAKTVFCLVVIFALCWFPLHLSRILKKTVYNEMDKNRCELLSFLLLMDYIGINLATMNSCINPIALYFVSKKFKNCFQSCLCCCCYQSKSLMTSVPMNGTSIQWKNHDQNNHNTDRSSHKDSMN
Type of experiment: cell membranes, Membrane. The conditions noted are these: cho-k1.
On to `COc1cc(C(=O)NC2CCCNC2)cc(OC)c1OC` (stereo not drawn) [TROXIPIDE], for which the IC50 entry is recorded as “Not Active”.
Take `CC1(C)[C@H]2CC[C@]1(C)C(=O)C2` [(-)-CAMPHOR]: the IC50 entry is reported as “Not Active”.
